In EP0511152A2, “Quinoxaline compounds, their preparation and use” (NOVO NORDISK A/S, priority 1991, dated 1992):
Converted amounts (≈) assume the structure as drawn.

What was measured:
AMPA type receptors = assay: ³H-AMPA binding (Test 1); settings: displacement of 50% of specific binding of ³H-AMPA (5 nM); rat cerebral cortical membrane homogenate, 0°C, 30 min
Protocol: (§1) The pharmacological properties of the compounds of the present invention can be illustrated by determining their capability for displacing radioactively labelled 2-amino3-hydroxy-5-methyl-4-isoxazolepropionic acid (AMPA) from the AMPA type receptors.
The displacement activity of the compounds may be shown by determining the IC₅₀ value which represents the concentration (µg/ml) which causes a displacement of 50% of the specific binding of ³H-AMPA.
500 µl of thawed rat cerebral cortical membrane homogenate in Tris-HCl (30 mM), CaCl₂ (2.5 mM) and KSCN (1OO mM) pH 7.1 were incubated at 0°C for 30 min. with 25 µl ³H-AMPA (5 nM final concentration) and the test compound and buffer. Nonspecific binding was determined by incubation with L-glutamic acid (600 µM final concentration). The binding reaction was terminated by adding 5 ml of ice-cold buffer followed by filtration through Whatman GF/C glass fibre filters and 2x5 ml wash with ice-cold buffer. Bound radioactivity was measured by scintillation counting. IC₅₀ was determined by Hill analysis of at least four concentrations of test compound.

[1] = tested on: quisqualic acid stimulated spreading depression in chicken retina; assay: Spreading depression (Test 2); type: cell-based; settings: Gallus gallus; concentration producing 50% maximal inhibition of quisqualic acid stimulated spreading depression; chick retina, quisqualate 1 µg/ml, 26°C
Protocol: as §1
The antagonism is measured by determining the IC₅₀ value which represents the concentration which produces a 50% maximal inhibition of quisqualic acid stimulated spreading depression in chicken retina.
Spreading depression (Test 2)
Chicks (3-10 days old) were decapitated, the eyes enucleated and sectioned along the equatorial plane. After removal of the anterior chamber and the vitreous body, the posterior chamber of each eye was placed in a small petri dish containing a physiological saline solution (P.S.S.) of the following composition (mM) NaCl (100), KCl (6.0), CaCl₂ (1.0), MgS0₄ (1.0), NaHCO₃ (30), NaH₂PO₄ (1.0), glucose (20).
The solution was saturated with 100% O₂ and maintained at 26°C.
The eyes are initially incubated in normal P.S.S. for 15-30 min. and then transferred to P.S.S. containing KCl (20 mM), NMDLA (30 µg/ml), quisqualate (1 µg/ml), kainate (1 µg/ml), or glycin (200 µg/ml). In these "stimulating solutions" S.D.s start spontaneously usually from the edge of the retina, and can be easily observed by eye. The time taken for an S.D. to start in each eye is measured.
After a further 15 minutes of incubation in normal P.S.S. the eyes are transferred to normal P.S.S. containing the test compound and incubated for 15 minutes. Thereafter the eyes are transferred to a "stimulating solution" containing the same concentration of the test compound. The time taken for an S.D. to start in each eye is again measured. The eyes are then placed back in normal P.S.S. and after 15 minutes the time taken for S.D. to start is again measured, in order to assess the degree of recovery from any drug effects.
An increase in the time taken for S.D. to start of 30 seconds more than the control time is considered 100% inhibition of S.D. The drug effects therefore are expressed as the percentage maximum response obtained for a given dose. The test value can be quoted therefore as the concentration (µg/ml) of test substance which produces a 50% maximal inhibition (IC₅₀).

Test 1 IC50 (AMPA type receptors) [µg/mL]	IC50 [1] [µg/mL]	SMILES
0.07	0.41 (≈ 1.37 µM)	NC(=O)c1ccc2c(c1)c([N+](=O)[O-])cc1[nH]c(=O)c(=O)[nH]c12 [Example 14, 8-Carbamoyl-6-nitrobenzo[f]quinoxaline-2,3(1H,4H)-dione]
0.55	1.3 (≈ 4 µM)	O=c1[nH]c2cc([N+](=O)[O-])c3c(C(F)(F)F)cccc3c2[nH]c1=O [Example 8, 6-Nitro-7-trifluoromethylbenzo[f]quinoxaline-2,3-(1H,4H)-dione]
0.16	1 (≈ 2.54 µM)	NC(=O)CNS(=O)(=O)c1ccc2c(c1)c([N+](=O)[O-])cc1[nH]c(=O)c(=O)[nH]c12 [Example 21, 8-Carbamoylmethylsulfamoyl-6-nitrobenzo[f]quinoxaline-2,3(1H,4H)-dione]
0.17	0.54 (≈ 1.71 µM)	N#Cc1cc2[nH]c(=O)c(=O)[nH]c2c2ccc(S(N)(=O)=O)cc12 [Example 11, 6-Cyano-8-sulfamoylbenzo[f]quinoxaline-2,3(1H,4H)-dione]
